Holding throughout (experiment): cells
One experiment relates to MHH-ES-1. The format is functional, cell-based. As to conditions: Homo sapiens.
Another experiment concerns NB69. It counts as functional, cell-based, Homo sapiens. As to conditions: Homo sapiens, NB69.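 Further: growth inhibition of NB69 cells, determined by a cell viability assay.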
The subject of another experiment is COLO-800. The format is functional, cell-based, Homo sapiens. The following applies: Homo sapiens, COLO-800.
The next experiment has as its system KYSE-520 cell line. It counts as functional, cell-based. As to conditions: Homo sapiens.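 Further: growth inhibition of human KYSE-520 cells, read out with a viability assay.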
Another experiment concerns LXF-289 cell line. The format is functional, cell-based. The following applies: Homo sapiens.
The subject of another experiment is KYSE-150 cell line. The format is functional, cell-based. As to conditions: Homo sapiens.
A further experiment has as its system KYSE-70 cell line. The format is functional, cell-based. As to conditions: Homo sapiens.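 Further: cell viability assay read-out, with IC50 expressing suppression of KYSE-70 cell growth.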
The test system of the next experiment is KU812 cell line. The format is functional, cell-based, Homo sapiens. The following applies: Homo sapiens, KU812.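 Further: growth inhibition of KU812 cells, read out with a cell viability assay.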
Another experiment relates to A253 cell line. The format is functional, cell-based, Homo sapiens. As to conditions: Homo sapiens, A253.
Another experiment relates to LCLC-103H cell line. The format is functional, cell-based. The following applies: Homo sapiens.
The next experiment deals with NB12. The format is functional, cell-based. The following applies: Homo sapiens.

Description for A253 cell line: SANGER: Inhibition of human A253 cell growth in a cell viability assay.
Description for COLO-800: SANGER: Inhibition of human COLO-800 cell growth in a cell viability assay.
Description for KU812 cell line: SANGER: Inhibition of human KU812 cell growth in a cell viability assay.
Description for KYSE-150 cell line: SANGER: Inhibition of human KYSE-150 cell growth in a cell viability assay.
Description for KYSE-520 cell line: SANGER: Inhibition of human KYSE-520 cell growth in a cell viability assay.
Description for KYSE-70 cell line: SANGER: Inhibition of human KYSE-70 cell growth in a cell viability assay.
Description for LCLC-103H cell line: SANGER: Inhibition of human LCLC-103H cell growth in a cell viability assay.
Description for LXF-289 cell line: SANGER: Inhibition of human LXF-289 cell growth in a cell viability assay.
Description for MHH-ES-1: SANGER: Inhibition of human MHH-ES-1 cell growth in a cell viability assay.
Description for NB12: SANGER: Inhibition of human NB12 cell growth in a cell viability assay.
Description for NB69: SANGER: Inhibition of human NB69 cell growth in a cell viability assay.

A word on the IC50: it is the midpoint of a concentration-inhibition curve. Take `CNCc1ccc(-c2[nH]c3cc(F)cc4c3c2CCNC4=O)cc1` [RUCAPARIB]: the IC50 in the experiment with MHH-ES-1 worked out at 501 nM; in the experiment with NB69, 946 nM; with COLO-800 it was 632 nM.

For `O=C(NOC[C@H](O)CO)c1ccc(F)c(F)c1Nc1ccc(I)cc1F` [MIRDAMETINIB], the IC50 in the experiment on KYSE-520 cell line was 236 nM; in the experiment with LXF-289 cell line it was more than 2000 nM; with KYSE-150 cell line, 727 nM; with KYSE-70 cell line, more than 2000 nM; in the experiment on KU812 cell line, 203 nM; in the experiment on A253 cell line it was 1260 nM. For the same molecule, the IC50 in the experiment on LCLC-103H cell line was more than 2000 nM.

In the experiment on NB12, `O=C1/C(=C/c2cccs2)CC/C1=C\c1cccs1` gave an IC50 of 1310 nM.

These data come from ChEMBL document CHEMBL1201861, “Genomics of Drug Sensitity in Cancer screening data, Wellcome Trust Sanger Institute”.
